Key:
Type in all cases: in vivo
[1] = system: blackgrass (Alopecurus myosuroides); assay: Test C pre-/postemergence: blackgrass
From the text: (§1) Seeds of plant species selected from blackgrass (Alopecurus myosuroides), bromegrass, downy (downy bromegrass, Bromus tectorum), foxtail, green (green foxtail, Setaria viridis), ryegrass, Italian (Italian ryegrass, Lolium multiflorum), winter wheat (Triticum aestivum), wild oat (Avena fatua), galium (catchweed bedstraw, Galium aparine), bermudagrass (Cynodon dactylon), surinam grass (Brachiaria decumbens), cocklebur (common cocklebur, Xanthium strumarium), corn (Zea mays), large crabgrass (Digitaria sanguinalis), woolly cupgrass (Eriochloa villosa), foxtail, giant (giant foxtail, Setaria faberii), goosegrass (Eleusine indica), johnsongrass (Sorghum halepense), kochia (Kochia scoparia), lambsquarters (Chenopodium album), morningglory (Ipomoea coccinea), nightshade (eastern black nightshade, Solanum ptycanthum), nutsedge, yellow (yellow nutsedge, Cyperus esculentus), pigweed (Amaranthus retroflexus), ragweed (common ragweed, Ambrosia elation), soybean (Glycine max), common (oilseed) sunflower (Helianthus annuus), Russian thistle (Salsola kali) and velvetleaf (Abutilon theophrasti) were planted into a blend of loam soil and sand and treated preemergence with test chemicals formulated in a non-phytotoxic solvent mixture which included a surfactant.
(§2) At the same time, plants selected from these crop and weed species and also barley (winter barley, Hordeum vulgare), canarygrass (Phalaris minor), chickweed (common chickweed, Stellaria media) windgrass (Apera spica-venti) and deadnettle (henbit deadnettle, Lamium amplexicaule) were planted in pots containing Redi-Earth® planting medium (Scotts Company, 14111 Scottslawn Road, Marysville, Ohio 43041) comprising spaghnum peat moss, vermiculite, wetting agent and starter nutrients and treated with postemergence applications of test chemicals formulated in the same manner. Plants ranged in height from 2 to 18 cm (1- to 4-leaf stage) for postemergence treatments.
(§3) Treated plants and controls were maintained in a greenhouse for 13 to 15 days, after which time all species were compared to controls and visually evaluated. Plant response ratings, summarized in Table C, are based on a scale of 0 to 100 where 0 is no effect and 100 is complete control. A dash (-) response means no test result.

[2] = system: winter wheat (Triticum aestivum); assay: Test C pre-/postemergence: winter wheat
Procedure, shortened: (§4)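 Visual injury scored 0–100 (100 = complete control) against untreated controls after 13–15 greenhouse days. Surfactant-containing solvent formulations applied either to soil after sowing (loam/sand) or over 1- to 4-leaf plants, 2–18 cm tall.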

[3] = system: wild oat (Avena fatua); assay: Test C pre-/postemergence: wild oat
From the text: as §1, §2, §3

[4] = system: foxtail, giant (giant foxtail, Setaria faberii); assay: Test A pre-/postemergence: foxtail, giant; conditions: for Foxtail, Giant plant response rating: Postemergence; for Plant response rating, Foxtail, Giant: Preemergence
Procedure, shortened: (§5)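 Plants in loam–sand blend were treated with test chemicals in non-phytotoxic solvent with surfactant, either as preemergence directed soil spray or postemergence at 2–10 cm, one- to two-leaf stage. After about ten days in greenhouse, injury was rated visually against untreated controls on a 0–100 scale (100 = complete control).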

[5] = system: barnyardgrass (Echinochloa crus-galli); assay: Test A pre-/postemergence: barnyardgrass; conditions: for Barnyardgrass plant response rating: Postemergence; for Plant response rating, Barnyardgrass: Preemergence
Procedure, shortened: as §5

[6] = system: lambsquarters (Chenopodium album); assay: Test C pre-/postemergence: lambsquarters
Procedure, shortened: as §4

[7] = system: velvetleaf (Abutilon theophrasti); assay: Test A pre-/postemergence: velvetleaf; conditions: for Velvetleaf plant response rating: visual rating on 0 to 100 scale (0 no effect, 100 complete control), approximately ten days
Procedure, shortened: as §5

[8] = system: pigweed (Amaranthus retroflexus); assay: Test A pre-/postemergence: pigweed; conditions: for Pigweed plant response rating: visual rating on 0 to 100 scale (0 no effect, 100 complete control), approximately ten days
Procedure, shortened: as §5

[9] = system: morningglory (Ipomoea coccinea); assay: Test C pre-/postemergence: morningglory
Procedure, shortened: as §4

[10] = system: nutsedge, yellow (yellow nutsedge, Cyperus esculentus); assay: Test C pre-/postemergence: nutsedge, yellow
From the text: as §1, §2, §3

[11] = system: chickweed (common chickweed, Stellaria media); assay: Test C postemergence: chickweed
From the text: as §2, §3

[12] = system: corn (Zea mays); assay: Test C pre-/postemergence: corn; conditions: Preemergence
From the text: as §1, §2, §3

[13] = Postemergence, 31 g ai/ha, scale 0 to 100 (0 no effect, 100 complete control)
[14] = Postemergence, 62 g ai/ha, scale 0 to 100 (0 no effect, 100 complete control)
[15] = Postemergence, 125 g ai/ha, scale 0 to 100, 0 no effect, 100 complete control
[16] = Postemergence, 250 g ai/ha, scale 0 to 100
[17] = 125 g ai/ha, 0 to 100 scale, 0 is no effect, 100 is complete control
[18] = 500 g ai/ha, visual rating on 0 to 100 scale (0 no effect, 100 complete control), approximately ten days
[19] = 125 g ai/ha, 0 to 100 scale where 0 is no effect and 100 is complete control
[20] = 500 g ai/ha, 0 to 100 scale (0 no effect, 100 complete control)
[21] = Postemergence, 125 g ai/ha, 0 to 100 scale, 0 is no effect, 100 is complete control
[22] = Preemergence, 125 g ai/ha, 0 to 100 scale where 0 is no effect and 100 is complete control
[23] = Preemergence, 500 g ai/ha, 0 to 100 scale (0 no effect, 100 complete control)
[24] = 125 g ai/ha, scale 0 to 100, 0 no effect, 100 complete control
[25] = Preemergence, 31 g ai/ha, scale of 0 to 100, 0 is no effect, 100 is complete control
[26] = Preemergence, 62 g ai/ha, scale of 0 to 100, 0 is no effect, 100 is complete control
[27] = Preemergence, 125 g ai/ha, scale 0 to 100, 0 no effect, 100 complete control
[28] = Preemergence, 250 g ai/ha, scale 0 to 100, 0 no effect, 100 complete control

Cc1nn(-c2ccnc(C(F)(F)F)c2)nc1Cc1ccnc(C(F)(F)F)c1 [Compound 137]
Plant response rating, Blackgrass [1, 13]: 10 | Plant response rating, Blackgrass [1, 14]: 30 | Plant response rating, Blackgrass [1, 15]: 35 | Plant response rating, Blackgrass [1, 16]: 60 | Plant response rating, Wheat [2, 13]: 10 | Plant response rating, Wheat [2, 14]: 15 | Plant response rating, Wheat [2, 15]: 30 | Plant response rating, Wheat [2, 16]: 35 | Plant response rating, Oat, Wild [3, 13]: 45 | Plant response rating, Oat, Wild [3, 14]: 50 | Plant response rating, Oat, Wild [3, 15]: 50 | Plant response rating, Oat, Wild [3, 16]: 70 | Foxtail, Giant plant response rating [4, 17]: 90 | Foxtail, Giant plant response rating [4, 18]: 90 | Plant response rating, Foxtail, Giant [4, 19]: 90 | Plant response rating, Foxtail, Giant [4, 20]: 90 | Barnyardgrass plant response rating [5, 17]: 70 | Barnyardgrass plant response rating [5, 18]: 90 | Plant response rating, Barnyardgrass [5, 19]: 50 | Plant response rating, Barnyardgrass [5, 20]: 70 | Plant response rating, Lambsquarters [6, 13]: 100 | Plant response rating, Lambsquarters [6, 14]: 100 | Plant response rating, Lambsquarters [6, 15]: 100 | Plant response rating, Lambsquarters [6, 16]: 100 | Plant response rating, Velvetleaf [7, 21]: 80 | Velvetleaf plant response rating ([7]; Postemergence, 500 g ai/ha): 100 | Plant response rating, Velvetleaf [7, 22]: 20 | Plant response rating, Velvetleaf [7, 23]: 20 | Plant response rating, Pigweed [8, 21]: 100 | Pigweed plant response rating ([8]; Postemergence, 500 g ai/ha): 100 | Plant response rating, Pigweed [8, 22]: 100 | Plant response rating, Pigweed [8, 23]: 100 | Plant response rating, Morningglory [9, 14]: 60 | Plant response rating, Morningglory [9, 15]: 80 | Plant response rating, Morningglory [9, 16]: 90 | Plant response rating, Nutsedge, Yellow [10, 13]: 5 | Plant response rating, Nutsedge, Yellow [10, 14]: 10 | Plant response rating, Nutsedge, Yellow [10, 15]: 10 | Plant response rating, Nutsedge, Yellow [10, 16]: 15 | Plant response rating, Chickweed ([11]; 31 g ai/ha, scale 0 to 100 (0 no effect, 100 complete control)): 70 | Plant response rating, Chickweed ([11]; 62 g ai/ha, scale 0 to 100 (0 no effect, 100 complete control)): 80 | Plant response rating, Chickweed [11, 24]: 98 | Plant response rating, Chickweed ([11]; 250 g ai/ha, scale 0 to 100): 98

Cc1nn(-c2ccc(F)c(C(F)(F)F)c2)nc1Oc1ccnc(C(F)(F)F)c1 [Compound 147]
Plant response rating, Blackgrass [1, 25]: 50 | Plant response rating, Blackgrass [1, 26]: 85 | Plant response rating, Blackgrass [1, 27]: 90 | Plant response rating, Blackgrass [1, 28]: 90 | Plant response rating, Wheat [2, 26]: 5 | Plant response rating, Wheat [2, 27]: 30 | Plant response rating, Wheat [2, 28]: 45 | Plant response rating, Corn ([12]; 31 g ai/ha, scale of 0 to 100, 0 is no effect, 100 is complete control): 10 | Plant response rating, Corn ([12]; 62 g ai/ha, scale of 0 to 100, 0 is no effect, 100 is complete control): 10 | Plant response rating, Corn [12, 24]: 25 | Plant response rating, Corn ([12]; 250 g ai/ha, scale 0 to 100, 0 no effect, 100 complete control): 35 | Plant response rating, Oat, Wild [3, 25]: 60 | Plant response rating, Oat, Wild [3, 26]: 70 | Plant response rating, Oat, Wild [3, 27]: 85 | Plant response rating, Oat, Wild [3, 28]: 95 | Foxtail, Giant plant response rating [4, 17]: 70 | Foxtail, Giant plant response rating [4, 18]: 80 | Plant response rating, Foxtail, Giant [4, 19]: 100 | Plant response rating, Foxtail, Giant [4, 20]: 100 | Barnyardgrass plant response rating [5, 17]: 80 | Barnyardgrass plant response rating [5, 18]: 80 | Plant response rating, Barnyardgrass [5, 19]: 90 | Plant response rating, Barnyardgrass [5, 20]: 100 | Plant response rating, Lambsquarters [6, 25]: 35 | Plant response rating, Lambsquarters [6, 26]: 45 | Plant response rating, Lambsquarters [6, 27]: 80 | Plant response rating, Lambsquarters [6, 28]: 80 | Plant response rating, Velvetleaf [7, 21]: 50 | Velvetleaf plant response rating ([7]; Postemergence, 500 g ai/ha): 90 | Plant response rating, Velvetleaf [7, 22]: 20 | Plant response rating, Velvetleaf [7, 23]: 50 | Plant response rating, Pigweed [8, 21]: 100 | Pigweed plant response rating ([8]; Postemergence, 500 g ai/ha): 100 | Plant response rating, Pigweed [8, 22]: 100 | Plant response rating, Pigweed [8, 23]: 100 | Plant response rating, Morningglory [9, 25]: 30 | Plant response rating, Morningglory [9, 26]: 30 | Plant response rating, Morningglory [9, 28]: 35 | Plant response rating, Nutsedge, Yellow [10, 25]: 0 | Plant response rating, Nutsedge, Yellow [10, 26]: 0 | Plant response rating, Nutsedge, Yellow [10, 27]: 0 | Plant response rating, Nutsedge, Yellow [10, 28]: 15
